A word on the IC50: it is the point on the concentration scale where inhibition reaches its midpoint. Broadly, the inhibition is the share of the control response that was lost under treatment. A higher inhibition goes with strong suppression.

One assay concerns CEM. Description: WST-1 proliferation assay, CEM. Particulars: Homo sapiens, CCRF-CEM; Acute lymphoblastic leukemia CEM; read-out: Anti-proliferative activity IC50 (μM) ± SD. The assay is classed as cell-based. On the procedure:
(§1) All the cancer cell lines were maintained in cultured in DMEM GlutaMAX™ (GIBCO Invitrogen, France, cat no 31966047) enhanced with 10% foetal bovine serum (GIBCO Invitrogen, France, cat no 10270-106) and 1% penicillin G/streptomycin (GIBCO Invitrogen, France, cat no 15140-122). Only Panc-10.5 cells were cultivated in RPMI 1640 medium (Gibco) supplemented with 2 mM L-glutamine, 1.5 g/L sodium bicarbonate, 4.5 g/L glucose, 10 mM HEPES, 1 mM sodium pyruvate, 10 Units/ml human insulin, […] (SVF): 15% (75 ml in 500 ml of medium).
(§2) Cells were grown as subconfluent monolayer and cultured in 75 cm^2 flasks at 37° C., 5% CO2 in a humidified atmosphere, and medium was changed every two days. […]
(§3) The cell proliferation WST-1 assay is a colorimetric assay for the quantification of cell proliferation and viability, based on the enzymatic cleavage of the tetrazolium salt WST-1 added to the culture medium, to a water soluble colored formazan dye, detected by absorbance at 450 nm, by mitochondrial succinate-tetrazolium reductase in viable cells. […]
(§4) After an incubation period of 72 h, at day 4, were prepared the 19 ml medium with reagent WST-1 1 ml ([…]). […] The cells were incubated at 37° C. in a humidified atmosphere of 5% CO2 for 1 h 30 and the absorbance at 450-655 nm was measured by Microplate Manager 5.2 (Bio-Rad).

A further assay concerns OPM-2. The experiment in a line: WST-1 proliferation assay, OPM-2. Particulars: Homo sapiens; Myeloma OPM-2; read-out: Anti-proliferative activity IC50 (μM) ± SD. The class given is cell-based. On the procedure: as §1, §2, §3, §4
A general note: Tetrazolium dyes change colour on reduction, which living cells bring about.

The target in a further assay is T1, NRP-1 (Homo sapiens, UniProt O14786).
T1 construct: purchased R&D Systems, UK 3870-N1-025
T1 sequence (O14786 22-644 isoform O14786-2 limits assumed): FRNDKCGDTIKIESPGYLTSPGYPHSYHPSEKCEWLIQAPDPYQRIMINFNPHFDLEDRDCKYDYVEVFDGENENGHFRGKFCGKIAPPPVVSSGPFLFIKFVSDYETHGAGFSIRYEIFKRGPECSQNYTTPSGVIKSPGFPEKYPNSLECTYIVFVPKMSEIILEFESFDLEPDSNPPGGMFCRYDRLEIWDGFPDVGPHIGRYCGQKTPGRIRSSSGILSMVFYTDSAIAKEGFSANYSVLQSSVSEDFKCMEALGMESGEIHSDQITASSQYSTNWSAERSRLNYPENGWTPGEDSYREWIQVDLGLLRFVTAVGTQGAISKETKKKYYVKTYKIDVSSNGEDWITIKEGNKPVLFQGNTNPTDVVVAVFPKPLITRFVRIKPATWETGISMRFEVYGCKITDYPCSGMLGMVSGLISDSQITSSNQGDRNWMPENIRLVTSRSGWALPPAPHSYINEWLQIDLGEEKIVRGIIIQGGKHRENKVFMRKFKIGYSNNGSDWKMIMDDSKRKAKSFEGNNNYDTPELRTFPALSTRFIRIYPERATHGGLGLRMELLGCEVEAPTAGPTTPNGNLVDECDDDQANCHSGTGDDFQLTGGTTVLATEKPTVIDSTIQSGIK
The experiment in a line: ELISA inhibition of VEGF binding to NRP-1. Particulars: for inhibition at 10 µM: compounds at 10 μM. On the procedure:
(§5) Elisa test was performed covering a 96-well microplate (BD Biosciences, France, cat no 353046) surface with 100 μl of 1×PBS, pH 7.4 with Ca^2+ and Mg^2+, (Lonza, France, cat no 17-513F/12) solution containing 0.2 μg/ml of VEGF-R1 (R&D Systems, UK, cat no 321-FL-050/CF) or 2 μg/ml of NRP-1 (R&D Systems, UK, cat no 3870-N1-025) or NRP-2 (R&D Systems, UK, cat no […]). The plate was sealed and incubated overnight at 4° C. After 3 washes with 200 μl of 1×PBS 0.5% (v/v) Tween 20 (Sigma, France, cat no 34078) (Buffer A), the plate was blocked by adding 200 μl of 1×PBS with 0.5% (w/v) BSA (Eurobio, France, cat no GAUBSA01-65) and agitated at 37° C. for 2 h. After washing five times with Buffer A, 50 μl/well of the compounds of the invention at 10 μM were added for the specific signal and 50 μl/well for the non-specific and max binding signal and incubated at 37° C. for 1 hour, shacking. 50 μl of btVEGF (R&D Systems, UK, cat no NFVEO) at 200 μg/ml for NRP-1/4 μg/ml Heparin (Sigma, USA, cat no H3393-10KU), 300 μg/ml for NRP-2 and 100 μg/ml for VEGF-R1 solution was added to each well; the plate was sealed and incubated at 37° C. for 2 h, shacking. The last incubation was carried out, after five washes with Buffer A, adding 100 μl/well Streptavidin-Horseradish Peroxidase (Amersham, Switzerland, cat no RPN4401) diluted 1:8000 with buffer A. After 1 h shacking at 37° C. under obscurity, the plate was washed 5 times with buffer A and 100 μl of SuperSignal west picochemiluminescent substrate (Interchim, USA cat no 34078) were added. Luminescence was quantified with an EnVision™ 2101 Multilabel reader (Perkin Elmer, USA) and the data analyzed by Wallac Envision manager software. Signal is given as relative light units (RLU). Non-specific binding is defined as the signal measured in the absence of receptor coated on the microplate. The specific binding was calculated as the difference between total binding and non-specific binding. The percentage of inhibition was calculated as following: […]

For a further assay, the target named is T2, NRP-2 (Homo sapiens, UniProt O60462).
T2 construct: fused on or other part: Possibly an Fc or His tag on the purchased soluble ectodomain
T2 sequence (O60462 whole entry, the tested form may be a part): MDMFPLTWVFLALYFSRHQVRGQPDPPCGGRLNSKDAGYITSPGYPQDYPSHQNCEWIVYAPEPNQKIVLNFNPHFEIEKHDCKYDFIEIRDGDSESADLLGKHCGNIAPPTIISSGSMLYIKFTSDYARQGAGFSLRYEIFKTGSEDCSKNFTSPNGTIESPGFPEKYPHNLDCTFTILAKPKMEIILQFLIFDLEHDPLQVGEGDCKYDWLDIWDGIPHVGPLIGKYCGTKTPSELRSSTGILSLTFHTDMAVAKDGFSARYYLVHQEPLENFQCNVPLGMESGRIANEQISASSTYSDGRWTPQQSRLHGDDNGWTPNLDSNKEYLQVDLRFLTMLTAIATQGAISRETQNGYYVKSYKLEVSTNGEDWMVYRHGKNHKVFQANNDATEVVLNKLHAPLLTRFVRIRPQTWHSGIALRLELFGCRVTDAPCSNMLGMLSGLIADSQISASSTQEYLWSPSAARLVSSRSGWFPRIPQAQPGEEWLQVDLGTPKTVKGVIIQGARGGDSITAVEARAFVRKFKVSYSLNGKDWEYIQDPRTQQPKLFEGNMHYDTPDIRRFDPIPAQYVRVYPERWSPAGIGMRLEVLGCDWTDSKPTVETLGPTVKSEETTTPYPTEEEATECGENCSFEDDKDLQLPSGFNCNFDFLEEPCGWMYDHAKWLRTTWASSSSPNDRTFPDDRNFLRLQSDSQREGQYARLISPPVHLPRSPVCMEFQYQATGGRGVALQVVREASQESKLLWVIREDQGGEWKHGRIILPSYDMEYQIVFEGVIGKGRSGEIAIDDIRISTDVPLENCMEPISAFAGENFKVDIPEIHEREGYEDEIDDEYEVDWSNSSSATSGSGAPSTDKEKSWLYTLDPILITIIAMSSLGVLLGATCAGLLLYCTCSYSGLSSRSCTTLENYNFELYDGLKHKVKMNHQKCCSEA
Description: ELISA inhibition of VEGF binding to NRP-2. The method, then: as §5, with “50 μl of btVEGF (R&D Systems, UK, cat no NFVEO) at 200 μg/ml for NRP-1/4 μg/ml Heparin (Sigma, USA, cat no H3393-10KU), 300 μg/ml for NRP-2 and 100 μg/ml for VEGF-R1 solution was added to each well; the plate was sealed and incubated at 37° C. for 2 h, shacking. The last incubation was carried out, after five washes with Buffer A, adding 100 μl/well Streptavidin-Horseradish Peroxidase (Amersham, Switzerland, cat no RPN4401) diluted 1:8000 with buffer A. After 1 h shacking at 37° C. under obscurity, the plate was washed 5 times with buffer A and 100 μl of SuperSignal west picochemiluminescent substrate (Interchim, USA cat no 34078) were added.” left out, “Signal is given as relative light units (RLU).” left out
For orientation: An ELISA detects its analyte on a solid surface through an enzyme-linked reagent.

Turning to `Cc1ccc(-c2nc3ccccc3[nH]2)cc1NC(=S)NC(=O)c1ccc2c(c1)OCCO2` [Compound 1, N-[5-(1H-benzimidazol-2-yl)-2-methylphenyl]-N′-(2,3-dihydro-1,4-benzodioxin-6-ylcarbonyl)thiourea], the IC50 was determined as 0.5 ± 0.01 µM with CEM, 2.5 ± 0.09 µM in the assay on OPM-2, 38 ± 2.08 µM at NRP-1 and 42 ± 3.15 µM at NRP-2. On NRP-1, this molecule yielded an inhibition at 10 µM of 35 ± 4%.

In the case of `O=C(NC(=S)Nc1cccc(-c2nc3ccccc3[nH]2)c1)c1ccc2c(c1)OCCO2` [Compound 2, N-[3-(1H-benzimidazol-2-yl)phenyl]-N′-(2,3-dihydro-1,4-benzodioxin-6-ylcarbonyl)thiourea], the IC50 in the assay with CEM is 0.3 ± 0.04 µM; in the assay on OPM-2, 0.5 ± 0.01 µM; on NRP-1 it was 34 ± 3.11 µM; on NRP-2 it was 35 ± 5.23 µM. The inhibition at 10 µM at NRP-1 amounted to 24 ± 2%.

Source of the values: patent publication US20130041005A1, “PHARMACEUTICAL COMPOSITIONS COMPRISING NEUROPILIN INHIBITORS, AND THEIR USE FOR THE PREVENTION AND/OR TREATMENT OF ANGIOGENIC DISORDERS AND CANCERS” (TRAGEX PHARMA, priority 2011, published 2013).
